Values joined by “and” are separate entries in the source; they are usually repeats but may differ in a detail not shown here. Equal entries are not always repeated. Active and inactive are the calls of the source. No cut-off for these calls is given here.
How the values were obtained:
Albumin [1] = biological target: T1, Albumin (Bos taurus, UniProt P02769); assay: Binding affinity to bovine serum albumin by fluorescence based assay; type: ADME
[2] = AUC (total) in BALB/c mouse at 1 mg/kg, iv measured upto 72 hrs by snapshot method; type: ADME, organism-based; design: dose 1 mg/kg, time < 72 hr, route intravenous; settings: in vivo
Albumin [3] = biological target: T1, Albumin; assay: Binding affinity to bovine serum albumin in phosphate buffer assessed as decrease in emission intensity at 450 nm at 5 uM measured at pH 8 by fluorescence emission spectrum analysis; type: ADME; settings: cattle, isolated protein
Leishmania infantum [4] = assay: Antileishmanial activity against Leishmania infantum amastigotes infected in Syrian hamster assessed as parasite load within liver at 40 mg/kg/day, po for 10 days formulated with 50% v/v cyclodextrin (reference value: 5000000.000 +/- 1673320.053/g); type: functional
Leishmania donovani [5] = assay: (§1) Antileishmanial activity against antimony sensitive Leishmania donovani BPK091 promastigotes infected in C57BL/6 mouse bone marrow-derived macrophages assessed as reduction in parasite load at 5 uM treated with compound at 24 hrs post-infection measured after 72 hrs post infection by q-PCR analysis relative to control; type: functional
[6] = Toxicity in Syrian hamster infected with Leishmania infantum BCN150 promastigotes assessed as spleen weight at 40 mg/kg/day, po for 10 days formulated with 8% v/v DMSO (reference value: 0.182 +/- 0.036 g); type: organism-based, Mesocricetus auratus; settings: in vivo, 240 h
Beta-casein = biological target: T2, Beta-casein (Bos taurus, UniProt P02666); assay: Binding affinity to bovine milk beta-casein in phosphate buffer assessed as increase in emission intensity at 530 nm at 5 uM measured at pH 8 by fluorescence emission spectrum analysis; type: ADME; settings: cattle
T2 sequence (P02666 whole entry): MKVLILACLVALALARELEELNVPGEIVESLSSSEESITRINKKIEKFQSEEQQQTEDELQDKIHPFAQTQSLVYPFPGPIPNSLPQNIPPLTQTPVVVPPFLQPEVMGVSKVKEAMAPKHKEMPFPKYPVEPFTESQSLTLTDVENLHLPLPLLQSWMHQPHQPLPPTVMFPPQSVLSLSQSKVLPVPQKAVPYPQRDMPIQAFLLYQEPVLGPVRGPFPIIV

[7] = Plasma concentration in syrian hamster infected with Leishmania infantum BCN150 promastigote at 40 mg/kg/day, po for 10 days formulated with 8% v/v DMSO; type: ADME, organism-based, Mesocricetus auratus
Leishmania donovani [8] = assay: as §1, with “resistant” for “sensitive”, “BPK190” for “BPK091”; type: functional
[9] = Toxicity in Syrian hamster infected with Leishmania infantum BCN150 promastigotes assessed as effect on ALT level at 40 mg/kg/day, po for 10 days formulated with 8% v/v DMSO measured after the last treatment; type: organism-based, Mesocricetus auratus; settings: in vivo, 240 h
Leishmania infantum [10] = assay: Anti-leishmanial activity against Leishmania infantum BCN150 promastigotes infected in Syrian hamster assessed as decrease in anti-leishmanial IgG level at 40 mg/kg/day, po for 10 days formulated with 30 to 50 % v/v cyclodextrin by ELISA; type: functional, organism-based
[11] = Cmax in BALB/c mouse at 20 mg/kg, po measured upto 72 hrs by snapshot method; type: ADME, organism-based; design: dose 20 mg/kg, route oral; settings: in vivo
[12] = Toxicity in Syrian hamster infected with Leishmania infantum BCN150 promastigotes assessed as liver lesions at 40 mg/kg/day, po for 10 days formulated with 8% v/v DMSO measured under necropsy; type: organism-based, Mesocricetus auratus; settings: in vivo, 240 h
[13] = Binding affinity to pepsin in porcine gastric mucosa in phosphate buffer assessed as compound lifetime at 530 nm at 5 uM measured at pH 8 by fluorescence emission spectrum analysis; type: ADME, Sus scrofa; settings: pig
[14] = Chemical stability of compound in PBS assessed as decrease in absorbance at 20 uM at pH 8 measured after air bubbling by UV-vis spectrophotometry analysis; type: physicochemical; settings: buffer, pH 8, 20 µM
[15] = Chemical stability of compound in PBS assessed as decrease in absorbance at 60 uM at pH 7 to 8 and 25 degC measured within 20 mins under dark conditions by UV-vis spectrophotometry analysis; type: physicochemical; settings: read-out: Drug degradation
Leishmania donovani [16] = assay: as §1, with “at 10” for “at 5”; type: functional
[17] = Stability of the compound in phosphate buffer assessed as compound lifetime at 450 nm at 5 uM measured at pH 8 by fluorescence emission spectrum analysis; type: physicochemical; settings: pH 8, 0.45 µM
[18] = Toxicity in Syrian hamster infected with Leishmania infantum BCN150 promastigotes assessed as spleen lesions at 40 mg/kg/day, po for 10 days formulated with 8% v/v DMSO measured under necropsy; type: organism-based, Mesocricetus auratus; settings: in vivo, 240 h
[19] = Toxicity in Syrian hamster infected with Leishmania infantum BCN150 promastigotes assessed as effect on plasma creatinine level at 40 mg/kg/day, po for 10 days formulated with 30 to 50% v/v cyclodextrin measured after the last treatment; type: organism-based, Mesocricetus auratus; settings: in vivo, 240 h
[20] = Toxicity in Syrian hamster infected with Leishmania infantum BCN150 promastigotes assessed as liver lesions at 40 mg/kg/day, po for 10 days formulated with 30 to 50% v/v cyclodextrin measured under necropsy; type: organism-based, Mesocricetus auratus; settings: in vivo, 240 h
[21] = Tmax in BALB/c mouse at 20 mg/kg, po measured upto 72 hrs by snapshot method; type: ADME, organism-based; settings: in vivo
[22] = Chemical stability of compound in PBS assessed as decrease in absorbance at 60 uM at pH 7 to 8 and 25 degC measured within 50 mins under dark conditions by UV-vis spectrophotometry analysis; type: physicochemical; settings: read-out: Drug degradation
[23] = Binding affinity to trypsin in bovine pancreas in phosphate buffer assessed as increase in emission intensity at 530 nm at 5 uM measured at pH 8 by fluorescence emission spectrum analysis; type: ADME, Bos taurus; settings: cattle
CYP2C9 = CYP2C9 (Homo sapiens, UniProt P11712); assay: Inhibition of human microsomal CYP2C9 expressed in baculovirus infected insect cells at 10 uM using luciferin-H as substrate preincubated with enzyme/substrate mixture for 30 mins followed by further incubation with NADPH for 30 mins by CYP450 luciferase Glo assay relative to control; type: ADME; settings: probe luciferin-H
Chain of CYP2C9 (P11712 whole entry): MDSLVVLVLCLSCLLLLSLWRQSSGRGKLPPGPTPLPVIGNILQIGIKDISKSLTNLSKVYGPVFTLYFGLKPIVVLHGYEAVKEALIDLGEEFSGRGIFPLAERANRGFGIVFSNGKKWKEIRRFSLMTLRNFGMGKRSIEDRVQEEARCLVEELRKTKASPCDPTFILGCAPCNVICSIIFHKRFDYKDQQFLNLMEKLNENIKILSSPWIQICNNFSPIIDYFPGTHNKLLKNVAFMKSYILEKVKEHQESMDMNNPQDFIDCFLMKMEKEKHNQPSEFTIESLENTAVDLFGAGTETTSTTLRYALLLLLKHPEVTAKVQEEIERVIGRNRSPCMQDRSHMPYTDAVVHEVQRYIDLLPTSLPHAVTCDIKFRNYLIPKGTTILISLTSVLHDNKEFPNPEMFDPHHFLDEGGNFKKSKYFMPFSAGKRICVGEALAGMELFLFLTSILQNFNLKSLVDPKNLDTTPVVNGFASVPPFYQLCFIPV

[24] = Toxicity in Syrian hamster infected with Leishmania infantum BCN150 promastigotes assessed as effect on alkaline phosphatase level at 20 mg/kg/day, po for 10 days measured after the last treatment; type: organism-based, Mesocricetus auratus; settings: in vivo, 240 h
[25] = Toxicity in Syrian hamster infected with Leishmania infantum BCN150 promastigotes assessed as spleen weight at 20 mg/kg/day, po for 10 days (reference value: 0.182 +/- 0.036 g); type: organism-based, Mesocricetus auratus; settings: in vivo, 240 h
[26] = Toxicity in Syrian hamster infected with Leishmania infantum BCN150 promastigotes assessed as effect on AST level at 20 mg/kg/day, po for 10 days measured after the last treatment; type: organism-based, Mesocricetus auratus; settings: in vivo, 240 h
[27] = Toxicity in Syrian hamster infected with Leishmania infantum BCN150 promastigotes assessed as liver lesions at 20 mg/kg/day, po for 10 days; type: organism-based, Mesocricetus auratus; settings: in vivo, 240 h
[28] = Toxicity in Syrian hamster infected with Leishmania infantum BCN150 promastigotes assessed as nausea at 20 mg/kg/day, po for 10 days measured daily; type: organism-based, Mesocricetus auratus; settings: in vivo, 240 h
Leishmania infantum [29] = assay: Anti-leishmanial activity against Leishmania infantum BCN150 promastigotes infected in Syrian hamster assessed as decrease in anti-leishmanial IgG level at 20 mg/kg/day, po for 10 days by ELISA; type: functional, organism-based

T1 sequence (P02769 whole entry): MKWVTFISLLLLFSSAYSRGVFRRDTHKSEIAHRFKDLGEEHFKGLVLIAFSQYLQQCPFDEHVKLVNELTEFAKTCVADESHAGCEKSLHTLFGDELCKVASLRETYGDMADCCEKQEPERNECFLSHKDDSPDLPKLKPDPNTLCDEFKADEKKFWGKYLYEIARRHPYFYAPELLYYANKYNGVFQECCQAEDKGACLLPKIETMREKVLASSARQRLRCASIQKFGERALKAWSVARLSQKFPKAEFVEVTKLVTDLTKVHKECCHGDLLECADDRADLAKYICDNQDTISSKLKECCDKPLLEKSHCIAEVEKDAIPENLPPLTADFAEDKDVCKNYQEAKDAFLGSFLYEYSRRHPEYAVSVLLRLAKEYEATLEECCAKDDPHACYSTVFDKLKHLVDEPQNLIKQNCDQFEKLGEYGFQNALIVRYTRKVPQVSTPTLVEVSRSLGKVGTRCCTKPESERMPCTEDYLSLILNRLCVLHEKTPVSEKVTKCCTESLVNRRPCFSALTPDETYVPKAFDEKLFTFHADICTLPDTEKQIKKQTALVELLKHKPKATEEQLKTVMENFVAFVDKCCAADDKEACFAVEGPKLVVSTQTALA

With `COc1ccc2oc(-c3csc4ccccc34)c(O)c(=O)c2c1` the Kd (Albumin [1]) was greater than 12 µM, the AUC at 72 h [2] was 16.3 µM·h and 5280 ng·h/mL and the Activity (Albumin [3]) was “Active”. The Activity (Leishmania infantum [4]) was 4000000 g⁻¹, the inhibition at 5 µM (Leishmania donovani [5]) was 36% and the Activity [6] was 0.19 g. For the same compound, the Activity (Beta-casein) was “Active”, the concentration at 240 h [7] was 44 nM and the inhibition at 5 µM (Leishmania donovani [8]) was 78%. For the same compound, the Activity [9] was “Non-Toxic”, the inhibition (Leishmania infantum [10]) was “Active” and the Cmax [11] was 1.96 µM and 630 ng/mL. The Activity [12] was “Non-Toxic”, the Time [13] was 5.5 nanoseconds and the Stability [14] was “Unstable”. The degraded at 20 min, 60 µM [15] was 50%, the inhibition at 10 µM (Leishmania donovani [16]) was 69% and the Time [17] was 0.32 nanoseconds. The Activity [18] was “Non-Toxic”, the Activity [19] was “Non-Toxic” and the Activity [20] was “Non-Toxic”. For the same compound, the Tmax [21] was 1 h, the degraded at 50 min, 60 µM [22] was 80% and the Activity [23] was “Active”. For the same compound, the inhibition at 0.5 h, 10 µM (CYP2C9) was -10%.

For `CCCCCCCCCCCCCCCCOP(=O)([O-])OCC[N+](C)(C)C` [MILTEFOSINE], the Activity [24] was “Non-Toxic”, the Activity [25] was 0.191 g and the Activity [26] was “Non-Toxic”. The Activity [27] was “Non-Toxic”, the Activity [28] was “Toxic” and the inhibition (Leishmania infantum [29]) was “Active”.

From ChEMBL document CHEMBL4311972, “Discovery of a benzothiophene-flavonol halting miltefosine and antimonial drug resistance in Leishmania parasites through the application of medicinal chemistry, screening and genomics” (Eur J Med Chem, 2019)
